± gives the expanded uncertainty stated by the source.
How the values were obtained:
[1] = xn = mol fraction of the nth substance listed; settings: 298.15 K, 101 kPa, Liquid
[2] = excess molar enthalpy (molar enthalpy of mixing); xn = mol fraction of the nth substance listed; settings: 298.15 K, 101 kPa, Liquid
[3] = 298.15 K; 101.33 kPa; Liquid
[4] = refractive index (Na D-line) (dimensionless); settings: 298.15 K; 101.33 kPa; Liquid

ClCCCCl [1,3-dichloropropane] + CCCCOC=O
Settings	excess molar enthalpy [kcal/mol]	mass density [kg/m3]
[1], x2 = 0.0501	–	1161.72 ± 0.75
[1], x2 = 0.101	–	1144.33 ± 0.78
[1], x2 = 0.1527	–	1127.13 ± 0.81
[1], x2 = 0.2078	–	1109.19 ± 0.85
[1], x2 = 0.2601	–	1092.54 ± 0.89
[1], x2 = 0.3145	–	1075.53 ± 0.92
[1], x2 = 0.3712	–	1058.26 ± 0.96
[1], x2 = 0.487	–	1024.07 ± 1
[1], x2 = 0.6083	–	989.86 ± 1.1
[1], x2 = 0.6701	–	973.02 ± 1.2
[1], x2 = 0.7342	–	955.9 ± 1.2
[1], x2 = 0.7984	–	939.11 ± 1.3
[1], x2 = 0.8657	–	921.98 ± 1.3
[1], x2 = 0.9315	–	905.54 ± 1.4
[2], x2 = 0.046	0.00296 ± 0.000837	–
[2], x2 = 0.0992	0.00421 ± 0.00086	–
[2], x2 = 0.1566	0.00351 ± 0.00086	–
[2], x2 = 0.2391	0.00153 ± 0.000789	–
[2], x2 = 0.2953	-0.00098 ± 0.000765	–
[2], x2 = 0.3467	-0.00392 ± 0.00086	–
[2], x2 = 0.3972	-0.00822 ± 0.001	–
[2], x2 = 0.4442	-0.013 ± 0.00115	–
[2], x2 = 0.4874	-0.0174 ± 0.00129	–
[2], x2 = 0.5293	-0.0205 ± 0.00139	–
[2], x2 = 0.5696	-0.0213 ± 0.00141	–
[2], x2 = 0.6134	-0.0219 ± 0.00141	–
[2], x2 = 0.6636	-0.0217 ± 0.00141	–
[2], x2 = 0.7143	-0.0213 ± 0.00141	–
[2], x2 = 0.7798	-0.0192 ± 0.00134	–
[2], x2 = 0.8596	-0.0142 ± 0.00117	–
[2], x2 = 0.9334	-0.00782 ± 0.00098	–

CCCCOC(=O)CCC [butyl butanoate]
Settings	mass density [kg/m3]	refractive index
[3]	864.84 ± 0.98	–
[4]	–	1.404 ± 0.001

ClCCCCCCCl [1,6-dichlorohexane] + CCCCOC=O
Settings	excess molar enthalpy [kcal/mol]	mass density [kg/m3]
[1], x2 = 0.0782	–	1052.81 ± 1.1
[1], x2 = 0.1483	–	1042.74 ± 1.2
[1], x2 = 0.2157	–	1032.73 ± 1.2
[1], x2 = 0.2827	–	1022.46 ± 1.2
[1], x2 = 0.3478	–	1012.18 ± 1.2
[1], x2 = 0.4104	–	1002.02 ± 1.2
[1], x2 = 0.5319	–	981.37 ± 1.3
[1], x2 = 0.5893	–	971.18 ± 1.3
[1], x2 = 0.6457	–	960.88 ± 1.3
[1], x2 = 0.7539	–	940.28 ± 1.4
[1], x2 = 0.8053	–	930.03 ± 1.4
[1], x2 = 0.9044	–	909.61 ± 1.4
[1], x2 = 0.9513	–	899.53 ± 1.4
[2], x2 = 0.0701	0.0129 ± 0.00115	–
[2], x2 = 0.1508	0.0227 ± 0.00143	–
[2], x2 = 0.2299	0.0298 ± 0.00167	–
[2], x2 = 0.3026	0.0332 ± 0.00177	–
[2], x2 = 0.371	0.0338 ± 0.00179	–
[2], x2 = 0.434	0.0322 ± 0.00174	–
[2], x2 = 0.491	0.0291 ± 0.00165	–
[2], x2 = 0.5401	0.0255 ± 0.00153	–
[2], x2 = 0.5778	0.0221 ± 0.00143	–
[2], x2 = 0.6131	0.02 ± 0.00136	–
[2], x2 = 0.6659	0.0173 ± 0.00127	–
[2], x2 = 0.7195	0.016 ± 0.00124	–
[2], x2 = 0.7775	0.0137 ± 0.00117	–
[2], x2 = 0.8372	0.0105 ± 0.00108	–
[2], x2 = 0.8968	0.00693 ± 0.000956	–
[2], x2 = 0.9528	0.00313 ± 0.000837	–

CCCCOC(=O)CC [butyl propanoate] + ClCCCl
[1]
Settings	mass density [kg/m3]
x1 = 0.0334	1222.24 ± 0.57
x1 = 0.0679	1199.39 ± 0.55
x1 = 0.1032	1177.4 ± 0.52
x1 = 0.1419	1154.78 ± 0.5
x1 = 0.1821	1132.96 ± 0.48
x1 = 0.2255	1110.88 ± 0.46
x1 = 0.2719	1088.82 ± 0.44
x1 = 0.3218	1066.84 ± 0.43
x1 = 0.3754	1044.9 ± 0.41
x1 = 0.4321	1023.34 ± 0.4
x1 = 0.4959	1001.02 ± 0.4
x1 = 0.5617	979.72 ± 0.42
x1 = 0.636	957.49 ± 0.44
x1 = 0.7142	936.1 ± 0.46
x1 = 0.804	913.62 ± 0.49
x1 = 0.8938	893.14 ± 0.52

ClCCCl [1,2-dichloroethane] + CCCCOC(C)=O
[1]
Settings	mass density [kg/m3]
x2 = 0.0359	1223.55 ± 0.58
x2 = 0.0733	1201.71 ± 0.56
x2 = 0.1139	1178.94 ± 0.55
x2 = 0.1559	1156.86 ± 0.53
x2 = 0.1988	1135.53 ± 0.53
x2 = 0.2456	1113.51 ± 0.52
x2 = 0.2953	1091.52 ± 0.52
x2 = 0.3469	1070.08 ± 0.52
x2 = 0.4021	1048.45 ± 0.52
x2 = 0.4599	1027.18 ± 0.53
x2 = 0.5233	1005.31 ± 0.54
x2 = 0.5883	984.3 ± 0.56
x2 = 0.6585	963 ± 0.59
x2 = 0.7344	941.52 ± 0.63
x2 = 0.8173	919.59 ± 0.66
x2 = 0.9013	898.96 ± 0.7

CCCCOC=O [butyl methanoate]
Settings	mass density [kg/m3]	refractive index
[3]	888.17 ± 1.6	–
[4]	–	1.387 ± 0.0012

CCCCOC(=O)CC [butyl propanoate]
Settings	mass density [kg/m3]	refractive index
[3]	871.08 ± 0.96	–
[4]	–	1.399 ± 0.001

From the NIST ThermoML archive (doi:10.1016/j.jct.2005.11.003)
